The values below come from US9777017B2, “Tricyclic fused thiophene derivatives as JAK inhibitors” (Incyte Corporation, priority 2012, dated 2017).

Molecules are shown by their SMILES.

Assay type in all cases: biochemical
The target in one assay is human JAK2 (Homo sapiens (Human), UniProt O60674). Briefly: In vitro JAK kinase assay (HTRF, phosphorylation of a biotinylated peptide), JAK2. Set-up: key to JAK2 IC50 (nM): +indicates an IC50 of ≦100 nM; ++indicates an IC50 of ≦1000 nM; +++indicates an IC50 of ≦2000 nM; ++++indicates an IC50 of >2000 nM; +++++indicates that the IC50 was greater than the highest concentration tested. Conditions: 1 mM ATP. The procedure: (§1) Compounds herein were tested for inhibitory activity of JAK targets according to the following in vitro assay described in Park et al., Analytical Biochemistry 1999, 269, 94-104. The catalytic domains of human JAK1 (a.a. 837-1142), JAK2 (a.a. 828-1132) and JAK3 (a.a. 781-1124) were expressed using baculovirus in insect cells and purified. The catalytic activity of JAK1, JAK2 or JAK3 was assayed by measuring the phosphorylation of a biotinylated peptide. The phosphorylated peptide was detected by homogenous time resolved fluorescence (HTRF). IC50s of compounds were measured for each kinase in the 40 μL reactions that contain the enzyme, ATP and 500 nM peptide in 50 mM Tris (pH 7.8) buffer with 100 mM NaCl, 5 mM DTT, and 0.1 mg/mL (0.01%) BSA. For the 1 mM IC50 measurements, ATP concentration in the reactions was 1 mM. Reactions were carried out at room temperature for 1 hour and then stopped with 20 μL 45 mM EDTA, 300 nM SA-APC, 6 nM Eu-Py20 in assay buffer (Perkin Elmer, Boston, Mass.). Binding to the Europium labeled antibody took place for 40 minutes and HTRF signal was measured on a PHERA star plate reader (BMG, Cary, N.C.). The Example compounds were each tested in the Example A assay (see Table 1 for data for the compounds of the examples as tested by the assay of Example A at 1 mM ATP).
human JAK2, sequence (O60674 828-1132): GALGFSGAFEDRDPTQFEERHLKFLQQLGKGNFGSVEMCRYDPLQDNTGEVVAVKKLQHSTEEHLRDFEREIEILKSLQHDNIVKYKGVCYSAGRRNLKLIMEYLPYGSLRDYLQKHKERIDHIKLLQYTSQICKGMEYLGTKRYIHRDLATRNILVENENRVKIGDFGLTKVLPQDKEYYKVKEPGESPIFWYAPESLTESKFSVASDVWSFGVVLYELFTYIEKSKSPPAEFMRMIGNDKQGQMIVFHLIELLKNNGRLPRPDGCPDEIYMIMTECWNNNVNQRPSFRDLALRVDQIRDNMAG
(In general: In TR-FRET formats the signal depends on donor and acceptor labels being close together.)

Assay [1] deals with human JAK1 (Homo sapiens, UniProt P23458). Briefly: In vitro JAK kinase assay (HTRF, phosphorylation of a biotinylated peptide), JAK1. Conditions: 1 mM ATP. The procedure:
as §1

The subject of assay [2] is human JAK1. The assay is described as above. Conditions: ratio of IC50s, 1 mM ATP. The procedure:
as §1

For `CNS(=O)(=O)C[C@H]1CC[C@H](n2c([C@@H](C)O)nc3cnc4ccsc4c32)CC1` [Example 14, 1-(trans-4-{2-[(1R)-1-hydroxyethyl]-1H-imidazo[4,5-d]thieno[3,2-b]pyridin-1-yl}cyclohexyl)-N-methylmethanesulfonamide], the “JAK2 IC50 (nM)” value at human JAK2 was “+++++”. Moreover, the IC50 (usually the point on the concentration scale where inhibition reaches its midpoint) against human JAK1 [1] is ≤ 1 µM. Further, the JAK2/JAK1 in the assay on human JAK1 [2] is reported as >5.
The like results for `C[C@@H](O)c1nc2cnc3ccsc3c2n1C1CCN(CC(F)(F)F)CC1` [Example 15, (1R)-1-{1-[1-(2,2,2-Trifluoroethyl)piperidin-4-yl]-1H-imidazo[4,5-d]thieno[3,2-b]pyridin-2-yl}ethanol] were, in that order, “+++++”, ≤ 2 µM and >9.
As to `C[C@@H](O)c1nc2cnc3ccsc3c2n1C1CCN(CCC#N)CC1` [Example 16, 3-(4-{2-[(1R)-1-Hydroxyethyl]-1H-imidazo[4,5-d]thieno[3,2-b]pyridin-1-yl}piperidin-1-yl)propanenitrile], the IC50 is > 2 µM at human JAK2 and ≤ 1 µM against human JAK1 [1]. Moreover, in the assay with human JAK1 [2], the JAK2/JAK1 is >10.
For the compound `N#CC[C@H]1CC[C@H](n2c(CO)nc3cnc4ccsc4c32)CC1` [Example 17, {trans-4-[2-(Hydroxymethyl)-1H-imidazo[4,5-b]thieno[3,2-b]pyridin-1-yl]cyclohexyl}acetonitrile], the IC50 at human JAK2 was ≤ 1 µM; at human JAK1 [1] it was ≤ 0.1 µM. In the assay on human JAK1 [2], the JAK2/JAK1 is given as >10.
The like results for `CS(=O)(=O)NCc1nc2cnc3ccsc3c2n1[C@H]1CC[C@H](CC#N)CC1` [Example 18, N-({1-[trans-4-(Cyanomethyl)cyclohexyl]-1H-imidazo[4,5-d]thieno[3,2-b]pyridin-2-yl}methyl)methanesulfonamide] were, in that order, ≤ 1 µM, ≤ 0.1 µM and >10.
For `C[C@@H](O)c1nc2cnc3ccsc3c2n1[C@H]1CCC(CO)OC1` (stereo partly drawn) [Example 19, (1R)-1-{1-[(3S)-6-(Hydroxymethyl)tetrahydro-2H-pyran-3-yl]-1H-imidazo[4,5-d]thieno[3,2-b]pyridin-2-yl}ethanol], the “JAK2 IC50 (nM)” value at human JAK2 was “+++++”. Besides, the IC50 against human JAK1 [1] was ≤ 1 µM. The JAK2/JAK1 in the assay with human JAK1 [2] is >10.
With `C[C@@H](O)c1nc2cnc3ccsc3c2n1[C@H]1CC[C@H](CC#N)OC1` [Example 20, ((2R,5S)-5-{2-[(1R)-1-Hydroxyethyl]-1H-imidazo[4,5-d]thieno[3,2-b]pyridin-1-yl}tetrahydro-2H-pyran-2-yl)acetonitrile], the IC50 against human JAK2 was ≤ 1 µM; against human JAK1 [1] it was ≤ 0.1 µM. In the assay with human JAK1 [2], the JAK2/JAK1 was >10.
As for `C[C@@H](O)c1nc2cnc3ccsc3c2n1[C@H]1CC[C@@H](CC#N)OC1` [Example 21, ((2S,5S)-5-{2-[(1R)-1-Hydroxyethyl]-1H-imidazo[4,5-d]thieno[3,2-b]pyridin-1-yl}tetrahydro-2H-pyran-2-yl)acetonitrile], the “JAK2 IC50 (nM)” value at human JAK2 is “+++++”. For the same compound, the IC50 on human JAK1 [1] was ≤ 1 µM. For the same compound, the JAK2/JAK1 in the assay on human JAK1 [2] is >10.
Turning to `CS(=O)(=O)NCc1nc2cnc3ccsc3c2n1[C@H]1CC2CCC1C2` (stereo partly drawn) [Example 22, N-((1-((2S)-Bicyclo[2.2.1]heptan-2-yl)-1H-imidazo[4,5-d]thieno[3,2-b]pyridin-2-yl)methyl)methanesulfonamide], the “JAK2 IC50 (nM)” value on human JAK2 was “+++++”. The IC50 against human JAK1 [1] was ≤ 1 µM. In the assay on human JAK1 [2], the JAK2/JAK1 was >4.
As to `C[C@@H](O)c1cc2cnc3ccsc3c2n1[C@H]1CC[C@H](CC#N)CC1` [Example 23, (trans-4-{7-[(1R)-1-Hydroxyethyl]-8H-pyrrolo[2,3-d]thieno[3,2-b]pyridin-8-yl}cyclohexyl)acetonitrile], the figures for the IC50 against human JAK2 and against human JAK1 [1] were ≤ 1 µM and ≤ 0.1 µM, respectively. In addition, the JAK2/JAK1 with human JAK1 [2] was >10.
The like results for `N#CC[C@H]1CC[C@H](n2/c(=N/C#N)[nH]c3cnc4ccsc4c32)CC1.O=C(O)C(F)(F)F` [Example 25, {(2E)-1-[trans-4-(Cyanomethyl)cyclohexyl]-1,3-dihydro-2H-imidazo[4,5-d]thieno[3,2-b]pyridin-2-ylidene}cyanamide trifluoroacetate] were, in that order, ≤ 1 µM, ≤ 0.1 µM and >6.
The like results for `N#CC[C@H]1CC[C@H](n2c(C3CC3)nc3cnc4ccsc4c32)CC1` [Example 26, [trans-4-(2-Cyclopropyl-1H-imidazo[4,5-b]thieno[3,2-b]pyridin-1-yl)cyclohexyl]acetonitrile] were, in that order, ≤ 1 µM, ≤ 0.1 µM and >10.
The like results for `CC(C)c1nc2cnc3ccsc3c2n1[C@H]1CC[C@H](CC#N)CC1` [Example 27, [trans-4-(2-Isopropyl-1H-imidazo[4,5-d]thieno[3,2-b]pyridin-1-yl)cyclohexyl]acetonitrile] were, in that order, ≤ 1 µM, ≤ 0.1 µM and >10.
Turning to `N#CC[C@H]1CC[C@H](n2c(C3CNC3)nc3cnc4ccsc4c32)CC1` [Example 28, [trans-4-(2-Azetidin-3-yl-1H-imidazo[4,5-d]thieno[3,2-b]pyridin-1-yl)cyclohexyl]acetonitrile], the “JAK2 IC50 (nM)” value at human JAK2 was “+++++”. For the same compound, the IC50 against human JAK1 [1] is ≤ 2 µM. In the assay with human JAK1 [2], the JAK2/JAK1 is on record as >7.
Consider `CN1CC(c2nc3cnc4ccsc4c3n2[C@H]2CC[C@H](CC#N)CC2)C1` [Example 29, {trans-4-[2-(1-Methylazetidin-3-yl)-1H-imidazo[4,5-d]thieno[3,2-b]pyridin-1-yl]cyclohexyl}acetonitrile], for which the IC50 is ≤ 2 µM at human JAK2 and ≤ 1 µM at human JAK1 [1]. Moreover, the JAK2/JAK1 in the assay with human JAK1 [2] is >9.
Regarding `CCNC(=O)C[C@H]1CC[C@H](n2c([C@@H](C)O)nc3cnc4ccsc4c32)CC1` [Example 31, N-Ethyl-2-(trans-4-{2-[(1R)-1-hydroxyethyl]-1H-imidazo[4,5-d]thieno[3,2-b]pyridin-1-yl}cyclohexyl)acetamide], the “JAK2 IC50 (nM)” value at human JAK2 is given as “+++++”. In addition, at human JAK1 [1], the IC50 is ≤ 1 µM. Besides, the JAK2/JAK1 in the assay on human JAK1 [2] is listed as >10.
Take `C[C@@H](O)c1nc2cnc3ccsc3c2n1C1CCCC(CCC#N)C1` (stereo partly drawn) [Example 32, 3-(3-{2-[(1R)-1-Hydroxyethyl]-1H-imidazo[4,5-d]thieno[3,2-b]pyridin-1-yl}cyclohexyl)propanenitrile]: the half-maximal inhibitory concentration (IC50) was > 2 µM on human JAK2 and ≤ 0.1 µM at human JAK1 [1]. Besides, the JAK2/JAK1 in the assay with human JAK1 [2] is recorded as >10.
Turning to `Cc1nc2cnc3ccsc3n2c1-c1ccc(CC#N)cc1` [Example 33, [4-(7-Methylimidazo[1,2-a]thieno[3,2-e]pyrazin-8-yl)phenyl]acetonitrile], the IC50 was ≤ 1 µM against human JAK2 and ≤ 0.1 µM on human JAK1 [1]. Besides, in the assay with human JAK1 [2], the JAK2/JAK1 is listed as >7.
The like results for `Cc1nc2cnc3ccsc3c2n1[C@H]1CC[C@H](CC#N)OC1` [Example 38, [(2R,5S)-5-(2-Methyl-1H-imidazo[4,5-d]thieno[3,2-b]pyridin-1-yl)tetrahydro-2H-pyran-2-yl]acetonitrile] were, in that order, ≤ 0.1 µM, ≤ 0.1 µM and >10.
For the compound `CCc1nc2cnc3ccsc3c2n1[C@H]1CC[C@H](CC#N)OC1` [Example 39, [(2R,5S)-5-(2-Ethyl-1H-imidazo[4,5-d]thieno[3,2-b]pyridin-1-yl)tetrahydro-2H-pyran-2-yl]acetonitrile], the IC50 against human JAK2 was ≤ 1 µM; against human JAK1 [1] it was ≤ 0.1 µM. In addition, the JAK2/JAK1 with human JAK1 [2] is given as >10.
